In the experiment the test system is CD2F1 mice, L1210 leukemia ip, survival T/C. Put plainly: NCI In Vivo Anticancer Drug Screen. Data for tumor model L1210 Leukemia (intraperitoneal) in CD2F1 (CDF1) mice. To be noted: endpoint: mean survival time, higher = longer survival. In a few lines: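 Mice carrying a transplanted tumor received test compound or vehicle alone. The value is the measurement in the treated group divided by that in the vehicle-treated control group.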

[1] abbreviates: dose: 100.0 mg/kg/injection, schedule: Q01DX009 (ip), vehicle: saline.
The mark [2] stands for this setting: dose: 200.0 mg/kg/injection, schedule: Q01DX009 (ip), vehicle: saline.
Setting [3] is: dose: 400.0 mg/kg/injection, schedule: Q01DX009 (ip), vehicle: saline.
Setting [4] is: dose: 100.0 mg/kg/injection, schedule: Q01DX009 (ip), vehicle: saline with Tween-80.
[5] abbreviates: dose: 100.0 mg/kg/injection, schedule: Q04DX003 (ip), vehicle: saline with Tween-80.
Where [6] appears, read: dose: 200.0 mg/kg/injection, schedule: Q01DX009 (ip), vehicle: saline with Tween-80.
[7] abbreviates: dose: 200.0 mg/kg/injection, schedule: Q04DX003 (ip), vehicle: saline with Tween-80.
[8] abbreviates: dose: 400.0 mg/kg/injection, schedule: Q01DX009 (ip), vehicle: saline with Tween-80.
Setting [9] is: dose: 400.0 mg/kg/injection, schedule: Q04DX003 (ip), vehicle: saline with Tween-80.
Setting [10] is: dose: 100.0 mg/kg/injection, schedule: Q04DX002 (ip), vehicle: saline with Tween-80.
Setting [11] is: dose: 75.0 mg/kg/injection, schedule: Q01DX001 (ip), vehicle: saline.
Where [12] appears, read: dose: 100.0 mg/kg/injection, schedule: Q04DX002 (ip), vehicle: saline.
Where [13] appears, read: dose: 200.0 mg/kg/injection, schedule: Q04DX002 (ip), vehicle: saline.
The mark [14] stands for this setting: dose: 400.0 mg/kg/injection, schedule: Q04DX002 (ip), vehicle: saline.
Setting [15] is: dose: 100.0 mg/kg/injection, schedule: Q01DX001 (ip), vehicle: saline.

Values joined by “and” are separate entries in the source; they are usually repeats but may differ in a detail not shown here. Identical values can stand only once. Toxic doses and inconclusive results are not listed.

Consider `NC(=O)N(CCCl)N=O`, for which the T/C reads like this: (dose: 1.0 mg/kg/injection, schedule: Q01DX007 (ip), vehicle: saline) 292 % of control; (dose: 1.0 mg/kg/injection, schedule: Q01DX009 (ip), vehicle: saline) 273 % of control; (dose: 1.0 mg/kg/injection, schedule: Q03DX003 (ip), vehicle: saline) 187 % of control; (dose: 1.0 mg/kg/injection, schedule: Q04DX003 (ip), vehicle: saline) 188 % of control; (dose: 2.0 mg/kg/injection, schedule: Q01DX007 (ip), vehicle: saline) 242 % of control; (dose: 2.0 mg/kg/injection, schedule: Q01DX009 (ip), vehicle: saline) 220 % of control. Also, the T/C runs as follows: (dose: 2.0 mg/kg/injection, schedule: Q03DX003 (ip), vehicle: saline) 286 % of control; (dose: 2.0 mg/kg/injection, schedule: Q04DX003 (ip), vehicle: saline) 284 % of control; (dose: 4.0 mg/kg/injection, schedule: Q01DX007 (ip), vehicle: saline) 105 % of control; (dose: 4.0 mg/kg/injection, schedule: Q01DX009 (ip), vehicle: saline) 101 % of control; (dose: 4.0 mg/kg/injection, schedule: Q04DX003 (ip), vehicle: saline) 308 % of control.
For `Cc1cn(C2CC(O)C(CS[As](C)C)O2)c(=O)[nH]c1=O` (stereo unspecified), the T/C reads like this: (dose: 12.5 mg/kg/injection, schedule: Q01DX005 (ip), vehicle: distilled water + Tween-80) 98 % of control; (dose: 25.0 mg/kg/injection, schedule: Q01DX005 (ip), vehicle: distilled water + Tween-80) 102 % of control; (dose: 50.0 mg/kg/injection, schedule: Q01DX005 (ip), vehicle: distilled water + Tween-80) 102 % of control; (dose: 100.0 mg/kg/injection, schedule: Q01DX005 (ip), vehicle: distilled water + Tween-80) 93 % of control.
Regarding `OCC1(CO)COC2(CCCCC2)N1`, the T/C (dose: 12.5 mg/kg/injection, schedule: Q01DX009 (ip), vehicle: saline) was 101 % of control and 103 % of control; the T/C (dose: 25.0 mg/kg/injection, schedule: Q01DX009 (ip), vehicle: saline) is 103 % of control and 104 % of control; the T/C (dose: 50.0 mg/kg/injection, schedule: Q01DX009 (ip), vehicle: saline) was 98 % of control; the T/C under setting [1] was 95 % of control and 103 % of control; the T/C under setting [2] was 97 % of control; the T/C under setting [3] was 95 % of control and 104 % of control.
As for `O=C(O)C(=O)O.[NH-]C1CCCC1[NH-].[Pt+2]` (stereo unspecified), the T/C is, setting by setting: (dose: 1.25 mg/kg/injection, schedule: Q04DX003 (ip), vehicle: other) 104 % of control; (dose: 2.5 mg/kg/injection, schedule: Q04DX003 (ip), vehicle: other) 114 % of control; (dose: 5.0 mg/kg/injection, schedule: Q04DX003 (ip), vehicle: other) 115 % of control; (dose: 10.0 mg/kg/injection, schedule: Q04DX003 (ip), vehicle: other) 106 % of control.
Consider `CCNC(=O)Nc1nc2ccccc2[nH]1`, for which the T/C (dose: 50.0 mg/kg/injection, schedule: Q01DX009 (ip), vehicle: saline with Tween-80) is 101 % of control.
For `O=C(O)C1C2CCCCC21` (stereo unspecified), the T/C reads like this: under setting [4], 105 % of control; under setting [5], 98 % of control; under setting [6], 94 % of control; under setting [7], 100 % of control; under setting [8], 101 % of control; under setting [9], 94 % of control.
Turning to `CC(C)(C)c1ccc(-n2cnc3c(=O)[nH]c(N)nc32)cc1`, the T/C reads like this: (dose: 50.0 mg/kg/injection, schedule: Q04DX002 (ip), vehicle: saline with Tween-80) 86 % of control; under setting [10], 90 % of control.
`NOCc1ccccc1CON`: the T/C under setting [11] is 96 % of control; the T/C (dose: 150.0 mg/kg/injection, schedule: Q01DX001 (ip), vehicle: saline) was 100 % of control; the T/C (dose: 300.0 mg/kg/injection, schedule: Q01DX001 (ip), vehicle: saline) was 100 % of control.
Turning to `COC1OCCC(C)O1` (stereo unspecified), the T/C under setting [12] is 104 % of control, the T/C under setting [13] was 104 % of control and the T/C under setting [14] was 107 % of control.
With `O=C(O)/C=C/C(=O)Nc1cccc(Oc2ccc([N+](=O)[O-])cc2[N+](=O)[O-])c1`, the T/C under setting [1] is 96 % of control, the T/C under setting [2] was 100 % of control and the T/C under setting [3] was 98 % of control.
As to `CCCCCCCC[n+]1ccc(C#N)cc1`, the T/C runs as follows: (dose: 18.8 mg/kg/injection, schedule: Q01DX009 (ip), vehicle: saline) 98 % of control; (dose: 37.5 mg/kg/injection, schedule: Q01DX009 (ip), vehicle: saline) 93 % of control.
`CC(C)CCCC(C)C1CCC2C3CCC4=CC5(CCC4(C)C3CCC12C)SCCS5` (stereo unspecified): the T/C (dose: 100.0 mg/kg/injection, schedule: Q01DX001 (ip), vehicle: saline with Tween-80) is 87 % of control and the T/C (dose: 200.0 mg/kg/injection, schedule: Q01DX001 (ip), vehicle: saline with Tween-80) is 91 % of control.
As to `CC(=O)c1ccc(N=Nc2c(N)nc(N)[nH]c2=O)cc1`, the T/C is 86 % of control under setting [4], 105 % of control under setting [6] and 102 % of control under setting [8].
As to `COC(CN(C)Cc1c[nH]c2ccccc12)OC`, the T/C under setting [11] was 107 % of control.
For the compound `NC/C(=N\O)c1ccc(Cl)cc1`, the T/C reads like this: under setting [15], 97 % of control; (dose: 200.0 mg/kg/injection, schedule: Q01DX001 (ip), vehicle: saline) 103 % of control.
For `CSC(=S)N(C)N`, the T/C under setting [4] is 104 % of control; the T/C under setting [5] is 102 % of control; the T/C under setting [6] was 103 % of control; the T/C under setting [7] is 100 % of control; the T/C under setting [8] was 104 % of control; the T/C under setting [9] is 102 % of control.
As to `C[N+]1(C)CCC(OC(=O)C(O)(c2ccccc2)C2CCCC2)C1` (stereo unspecified), the T/C is 87 % of control (dose: 3.13 mg/kg/injection, schedule: Q04DX003 (ip), vehicle: saline); 98 % of control (dose: 6.25 mg/kg/injection, schedule: Q04DX003 (ip), vehicle: saline); 100 % of control (dose: 12.5 mg/kg/injection, schedule: Q04DX003 (ip), vehicle: saline with Tween-80); 90 % of control (dose: 12.5 mg/kg/injection, schedule: Q04DX003 (ip), vehicle: saline); 104 % of control (dose: 25.0 mg/kg/injection, schedule: Q01DX001 (ip), vehicle: saline); 94 % of control (dose: 25.0 mg/kg/injection, schedule: Q04DX003 (ip), vehicle: saline with Tween-80). The T/C reads like this: (dose: 25.0 mg/kg/injection, schedule: Q04DX003 (ip), vehicle: saline) 103 % of control; (dose: 50.0 mg/kg/injection, schedule: Q01DX001 (ip), vehicle: saline) 106 % of control; (dose: 50.0 mg/kg/injection, schedule: Q04DX003 (ip), vehicle: saline with Tween-80) 103 % of control; (dose: 50.0 mg/kg/injection, schedule: Q04DX003 (ip), vehicle: saline) 95 % of control; under setting [15], 102 % of control and 105 % of control; under setting [12], 97 % of control. Moreover, the T/C by setting is: under setting [5], 108 % of control; (dose: 100.0 mg/kg/injection, schedule: Q04DX003 (ip), vehicle: saline) 113 % of control and 88 % of control; under setting [13], 112 % of control; under setting [14], 104 % of control.
Regarding `COc1ccc(NC(=O)Nc2cccc(Cl)c2)c(OC)c1`, the T/C runs as follows: under setting [10], 88 % of control; (dose: 200.0 mg/kg/injection, schedule: Q04DX002 (ip), vehicle: saline with Tween-80) 98 % of control.
As to `COc1cc(N=Nc2ccc(C(=O)O)cc2)ccc1N(CCCl)CCCl`, the T/C is 106 % of control and 109 % of control (dose: 25.0 mg/kg/injection, schedule: Q04DX003 (ip), vehicle: Klucel (hydroxypropylcellulose) (HPC)); 106 % of control and 112 % of control (dose: 50.0 mg/kg/injection, schedule: Q04DX003 (ip), vehicle: Klucel (hydroxypropylcellulose) (HPC)); 113 % of control and 98 % of control (dose: 100.0 mg/kg/injection, schedule: Q04DX003 (ip), vehicle: Klucel (hydroxypropylcellulose) (HPC)).
Turning to `CC1(C)CC(=O)C2OC2(C)C1` (stereo unspecified), the T/C was 100 % of control under setting [4]; 95 % of control under setting [5]; 97 % of control under setting [6]; 103 % of control under setting [7]; 96 % of control under setting [8]; 97 % of control under setting [9].

Source of the values: PubChem BioAssay AID256 (DTP/NCI, 2004).
